Here are results for 28 compounds from PubChem BioAssay AID330 (DTP/NCI, 2004).

The test system of the assay is P388 leukemia ip, CD2F1 mice, survival T/C. Kind of assay: NCI In Vivo Anticancer Drug Screen. Data for tumor model P388 Leukemia (intraperitoneal) in CD2F1 (CDF1) mice. As to conditions: endpoint: median survival time, higher = longer survival. In short, it runs like this:
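Mice carrying the transplanted tumor received test compound or vehicle. Survival was recorded in each group, and the value is the treated-group measurement divided by that of the vehicle-treated control group.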

The mark [1] stands for this setting: dose: 12.5 mg/kg/injection, schedule: Q01DX009 (ip), vehicle: saline.
[2] abbreviates: dose: 50.0 mg/kg/injection, schedule: Q01DX009 (ip), vehicle: saline.
Setting [3] is: dose: 50.0 mg/kg/injection, schedule: Q01DX009 (ip), vehicle: Klucel (hydroxypropylcellulose) (HPC).
[4] abbreviates: dose: 100.0 mg/kg/injection, schedule: Q01DX009 (ip), vehicle: Klucel (hydroxypropylcellulose) (HPC).
Where [5] appears, read: dose: 200.0 mg/kg/injection, schedule: Q01DX009 (ip), vehicle: Klucel (hydroxypropylcellulose) (HPC).
The mark [6] stands for this setting: dose: 12.5 mg/kg/injection, schedule: Q01DX009 (ip), vehicle: saline with Tween-80.
Setting [7] is: dose: 25.0 mg/kg/injection, schedule: Q01DX009 (ip), vehicle: saline with Tween-80.
Where [8] appears, read: dose: 50.0 mg/kg/injection, schedule: Q01DX009 (ip), vehicle: saline with Tween-80.
The mark [9] stands for this setting: dose: 100.0 mg/kg/injection, schedule: Q01DX009 (ip), vehicle: saline.
Setting [10] is: dose: 6.25 mg/kg/injection, schedule: Q01DX005 (ip), vehicle: Klucel (hydroxypropylcellulose) (HPC).
Where [11] appears, read: dose: 12.5 mg/kg/injection, schedule: Q01DX005 (ip), vehicle: Klucel (hydroxypropylcellulose) (HPC).
The mark [12] stands for this setting: dose: 25.0 mg/kg/injection, schedule: Q01DX005 (ip), vehicle: Klucel (hydroxypropylcellulose) (HPC).
Where [13] appears, read: dose: 50.0 mg/kg/injection, schedule: Q01DX005 (ip), vehicle: Klucel (hydroxypropylcellulose) (HPC).
Setting [14] is: dose: 100.0 mg/kg/injection, schedule: Q01DX005 (ip), vehicle: Klucel (hydroxypropylcellulose) (HPC).
The mark [15] stands for this setting: dose: 60.0 mg/kg/injection, schedule: Q01DX005 (ip), vehicle: saline with Tween-80.
Setting [16] is: dose: 120.0 mg/kg/injection, schedule: Q01DX005 (ip), vehicle: saline with Tween-80.
Setting [17] is: dose: 240.0 mg/kg/injection, schedule: Q01DX005 (ip), vehicle: saline with Tween-80.
The mark [18] stands for this setting: dose: 100.0 mg/kg/injection, schedule: Q01DX009 (ip), vehicle: saline with Tween-80.
Setting [19] is: dose: 50.0 mg/kg/injection, schedule: Q01DX005 (ip), vehicle: saline with Tween-80.
[20] abbreviates: dose: 100.0 mg/kg/injection, schedule: Q01DX005 (ip), vehicle: saline with Tween-80.
[21] abbreviates: dose: 200.0 mg/kg/injection, schedule: Q01DX005 (ip), vehicle: saline with Tween-80.

Where “and” joins values, the source holds several entries; their conditions need not be identical. Equal values may be shown once. Toxic doses and inconclusive results are not listed.

In the case of `C(COCC1CO1)OCC1CO1` (centres undefined), the T/C is 120 % of control under setting [1] and 150 % of control under setting [2].

For the compound `O=S(=O)(Nc1ccc2ccc3cccc4ccc1c2c34)c1ccccc1`, the T/C by setting is: under setting [3], 98 % of control; under setting [4], 100 % of control; under setting [5], 100 % of control.

`CCCCOc1cccc2c(NCCCNCCCNc3c4ccccc4nc4c(OCCCC)cccc34)c3ccccc3nc12`: the T/C reads like this: (dose: 0.63 mg/kg/injection, schedule: Q01DX009 (ip), vehicle: other) 114 % of control; (dose: 1.25 mg/kg/injection, schedule: Q01DX009 (ip), vehicle: other) 121 % of control; (dose: 2.5 mg/kg/injection, schedule: Q01DX009 (ip), vehicle: other) 120 % of control and 124 % of control; (dose: 5.0 mg/kg/injection, schedule: Q01DX009 (ip), vehicle: other) 100 % of control.

Take `O=C1c2ccccc2C(=O)N1S(=O)(=O)C/C=C/CCl`: the T/C by setting is: under setting [6], 94 % of control; under setting [7], 97 % of control; under setting [8], 105 % of control; under setting [2], 110 % of control; under setting [9], 103 % of control; (dose: 200.0 mg/kg/injection, schedule: Q01DX009 (ip), vehicle: saline) 108 % of control.

In the case of `Cc1cccc(/C=N/N2CCN(C(c3ccccc3)c3ccccc3)CC2)n1`, the T/C (dose: 100.0 mg/kg/injection, schedule: Q01DX001 (ip), vehicle: Klucel (hydroxypropylcellulose) (HPC)) was 100 % of control; the T/C (dose: 200.0 mg/kg/injection, schedule: Q01DX001 (ip), vehicle: Klucel (hydroxypropylcellulose) (HPC)) was 97 % of control; the T/C (dose: 400.0 mg/kg/injection, schedule: Q01DX001 (ip), vehicle: Klucel (hydroxypropylcellulose) (HPC)) was 100 % of control.

`Cc1ccc(N=Nc2c(-c3ccccc3)nn(C(N)=S)c2C)cc1`: the T/C is 92 % of control (dose: 100.0 mg/kg/injection, schedule: Q01DX001 (ip), vehicle: saline with Tween-80); 97 % of control (dose: 200.0 mg/kg/injection, schedule: Q01DX001 (ip), vehicle: saline with Tween-80); 103 % of control (dose: 400.0 mg/kg/injection, schedule: Q01DX001 (ip), vehicle: saline with Tween-80).

Regarding `Cc1cccc(C2N=C3Oc4ccccc4C=C3C(=O)N2)c1` (centres undefined), the T/C is 96 % of control under setting [10]; 95 % of control under setting [11]; 96 % of control under setting [12]; 99 % of control under setting [13]; 105 % of control under setting [14].

For the compound `Oc1cc(Br)ccc1/C=N/Nc1ccccn1`, the T/C is, setting by setting: under setting [15], 90 % of control; under setting [16], 96 % of control; under setting [17], 101 % of control.

In the case of `O=C(CCl)NC(Cc1ccsc1)C(=O)O` (centres undefined), the T/C by setting is: under setting [2], 93 % of control; under setting [9], 102 % of control.

Take `CCc1c(NCCCl)c(C(=O)NCCCl)c2nc3ccccc3n2c1NCCCl`: the T/C by setting is: (dose: 3.75 mg/kg/injection, schedule: Q01DX005 (ip), vehicle: saline with Tween-80) 100 % of control; (dose: 7.5 mg/kg/injection, schedule: Q01DX005 (ip), vehicle: saline with Tween-80) 106 % of control; (dose: 15.0 mg/kg/injection, schedule: Q01DX005 (ip), vehicle: saline with Tween-80) 108 % of control.

Turning to `[I][Hg][CH2]C1Cc2ccccc2O1` (centres undefined), the T/C (dose: 6.25 mg/kg/injection, schedule: Q01DX009 (ip), vehicle: saline) is 90 % of control; the T/C under setting [1] was 90 % of control; the T/C (dose: 25.0 mg/kg/injection, schedule: Q01DX009 (ip), vehicle: saline) was 99 % of control; the T/C under setting [2] was 96 % of control.

For `CCCCC(O)CNc1ccccc1` (centres undefined), the T/C reads like this: under setting [15], 105 % of control; under setting [16], 99 % of control; under setting [17], 90 % of control.

`CCSC(CC(C)=O)c1ccccc1` (centres undefined): the T/C under setting [8] is 108 % of control; the T/C under setting [18] is 116 % of control; the T/C (dose: 200.0 mg/kg/injection, schedule: Q01DX009 (ip), vehicle: saline with Tween-80) is 105 % of control.

Consider `C=CCO[C@H]1CO[C@H]2[C@@H]1OC[C@H]2OCC=C`, for which the T/C is, setting by setting: under setting [19], 96 % of control; under setting [20], 97 % of control; under setting [21], 99 % of control.

On to `Cc1noc(NS(=O)(=O)c2ccc(N=Nc3cc(N=Nc4ccc(S(=O)(=O)Nc5onc(C)c5C)cc4)c4c(NC(=O)C(Cl)Cl)cccc4c3OC(=O)C(Cl)Cl)cc2)c1C`, for which the T/C reads like this: under setting [8], 94 % of control; under setting [18], 100 % of control.

Take `O=C(Cc1ccc(Cl)cc1)NCCc1ccccc1`: the T/C runs as follows: under setting [19], 102 % of control; under setting [20], 102 % of control; under setting [21], 99 % of control.

For the compound `O=C1NC(=O)C(=O)N1`, the T/C (dose: 100.0 mg/kg/injection, schedule: Q04DX003 (ip), vehicle: saline) is 100 % of control and the T/C (dose: 400.0 mg/kg/injection, schedule: Q04DX003 (ip), vehicle: saline) was 100 % of control.

Regarding `O=P(c1ccccc1)(c1ccccc1)C(O)c1cccs1` (centres undefined), the T/C reads like this: under setting [3], 90 % of control; under setting [4], 88 % of control; under setting [5], 92 % of control.

In the case of `COc1ccc(/C=N/N2CN(C(C)C(=O)O)P(N(CCO)CCO)N=C2N)cc1OC` (centres undefined), the T/C was 104 % of control under setting [15], 99 % of control under setting [16] and 99 % of control under setting [17].

Regarding `CC1(C)CC2C1(O)CCC1(C)C(O)C=CC21CO` (centres undefined), the T/C was 98 % of control (dose: 6.0 mg/kg/injection, schedule: Q01DX005 (ip), vehicle: Klucel (hydroxypropylcellulose) (HPC)); 95 % of control (dose: 12.0 mg/kg/injection, schedule: Q01DX005 (ip), vehicle: Klucel (hydroxypropylcellulose) (HPC)); 100 % of control (dose: 24.0 mg/kg/injection, schedule: Q01DX005 (ip), vehicle: Klucel (hydroxypropylcellulose) (HPC)); 93 % of control under setting [12]; 90 % of control (dose: 48.0 mg/kg/injection, schedule: Q01DX005 (ip), vehicle: Klucel (hydroxypropylcellulose) (HPC)); 93 % of control under setting [13]. Moreover, the T/C under setting [14] is 90 % of control.

Consider `O=C(O)C1C(C(=O)O)C2(Cl)C(Cl)=C(Cl)C1(Cl)C2(Cl)Cl.[Co]` (centres undefined), for which the T/C is, setting by setting: (dose: 50.0 mg/kg/injection, schedule: Q01DX001 (ip), vehicle: saline) 109 % of control; (dose: 100.0 mg/kg/injection, schedule: Q01DX001 (ip), vehicle: saline) 109 % of control; (dose: 200.0 mg/kg/injection, schedule: Q01DX001 (ip), vehicle: saline) 109 % of control.

Turning to `Cn1cc(N)c2ccccc2c1=O`, under setting [19], the T/C is 103 % of control.

As to `Nc1nsc2nc3ccccc3cc12`, the T/C is, setting by setting: under setting [10], 102 % of control; under setting [11], 100 % of control; under setting [12], 99 % of control; under setting [14], 112 % of control; (dose: 200.0 mg/kg/injection, schedule: Q01DX005 (ip), vehicle: Klucel (hydroxypropylcellulose) (HPC)) 102 % of control.

In the case of `Cc1c(C)c(C)c2c(c1C)CCC2O` (centres undefined), the T/C by setting is: under setting [6], 102 % of control and 100 % of control; under setting [7], 105 % of control and 102 % of control; under setting [8], 105 % of control and 100 % of control.

In the case of `COc1cccc2c1C(=O)c1c(O)c3c(c(O)c1C2=O)CC(O)(C(N)=O)CC3OC1CC(N)C(O)C(C)O1` (centres undefined), the T/C is 101 % of control (dose: 0.39 mg/kg/injection, schedule: Q01DX009 (ip), vehicle: water) and 151 % of control (dose: 6.25 mg/kg/injection, schedule: Q01DX009 (ip), vehicle: water).

Turning to `O=C1c2cccc3c([N+](=O)[O-])ccc(c23)C(=O)N1CCCN1CCOCC1`, the T/C is, setting by setting: under setting [19], 114 % of control; under setting [20], 116 % of control.

Turning to `CCOC(=O)c1c(C)csc1NC(=O)CSCC(=O)OC`, the T/C is, setting by setting: under setting [15], 99 % of control; under setting [16], 100 % of control; under setting [17], 94 % of control.

On to `CC1=CC2(C)C3C=C(C)C(C2C(=O)C1=O)C(C)(O)C3=O` (centres undefined), for which the T/C under setting [19] is 97 % of control, the T/C under setting [20] was 106 % of control and the T/C under setting [21] is 106 % of control.
